Like-named read-outs stand apart in the source and are kept apart here.
Tests used:
[1] = target: HIV-1 integrase (Human immunodeficiency virus type 1 group M subtype B, UniProt P12497); test: biochemical; format: biochemical
Procedure, shortened: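 Compounds or DMSO added to 20 nM DNA and 400 nM integrase in 50 mM MOPS pH 7.2, 7.5 mM MgCl2, 14 mM 2-mercaptoethanol; 2 h at 37° C, quenched with formamide/SDS loading buffer. Products resolved on gels, imaged and quantified by densitometry.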

[2] = system: HIV-1 constructs containing wild-type IN; test: microbe, parasite or virus in culture; format: cell-based; details: for EC50: Human immunodeficiency virus 1
[3] = in vitro; format: cell-based, human; details: human, 50% reduction in the level of ATP in HOS cells
Procedure, shortened: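 Cells exposed to compounds over a concentration range for 48 hrs at 37° C. Viability read as cellular ATP by luciferase (ATPlite) luminescence after lysis, normalised to untreated cells; CC50 derived by regression fit.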

[4] = system: HIV-1 constructs containing mutant IN Y143R; test: microbe, parasite or virus in culture; format: cell-based; details: for EC50: Human immunodeficiency virus 1
Text: (§1) Single-Round HIV-1 Infectivity Assay.
(§2) Human embryonyl kidney cell culture cell line 293 was acquired from the American type Culture Collection (ATCC).
(§3) The virus-containing supernatants were then harvested, clarified by low-speed centrifugation, filtrated, and diluted for preparation in infection assays. […] Activity was normalized to infectivity in the absence of target compounds. KaleidaGraph (Synergy Software, Reading, Pa.) was used to perform regression analysis on the data. EC50 values were determined from the fit model.
(§4) pNLNgoMIVR^−ΔEnv.LUC has been described previously (Zhao et al. 2008). The integrase codon reading frame was removed from pNLNgoMIVR^−ΔEnv LUC (between KpnI and SalI sites) and placed between the KpnI and SalI sites of pBluescript II KS+. Using that construct as the wild-type template, we prepared the following HIV-1 Integrase-resistant mutants via the QuikChange II XL (Stratagene, La Jolla, Calif.) site-directed mutagenesis protocol: H51Y, T66I, E92Q, G118R, Y143R, Q148H, Q148K, N155H, R263K, G140S+Q148H, G140A+Q148K, E138K+Q148K, and H51Y+R263K. The following sense with cognate antisense (not shown) oligonucleotides (Integrated DNA Technologies, Coralville, Iowa) were used in the mutagenesis: H51Y, 5′-[…]-3; T66I, 5′-[…]-3′; E92Q, 5′-[…]-3′; G118R, 5′-[…]-3′; E138K, 5′-[…]-3; G140A, 5′-[…]-3; G140S, 5′-[…]-3′; Y143R, 5′-[…]-3′; Q148H, 5′-[…]-3′; Q148K, 5′-[…]-3; N155H, 5′-[…]-3′; R263K 5′-[…]-3′. The double mutation G140S+Q148H was constructed by using the previously generated Q148H mutant and the appropriate oligonucleotide for the 2nd mutation, G140S. The double mutation G140A+Q148K was made by using the Q148K mutant and the appropriate oligonucleotide for the 2nd mutation, G140A. The double mutation E138K+Q148K was made by using the Q148K mutant and the appropriate oligonucleotide for the 2nd mutation, E138K. The double mutation H51Y+R263K was constructed by using the previously generated H51Y mutant and the appropriate oligonucleotides for the 2nd mutation, R263K. The DNA sequence of each construct was verified independently by DNA sequence determination. […] These DNA sequences were additionally checked independently by DNA sequence determination.

[5] = system: HIV-1 constructs containing mutant IN N155H; test: microbe, parasite or virus in culture; format: cell-based; details: for EC50: Human immunodeficiency virus 1
Text: as §1, §2, §3, §4

[6] = system: HIV-1 constructs containing mutant IN G140S-Q148H; test: microbe, parasite or virus in culture; format: cell-based; details: for EC50: Human immunodeficiency virus 1
Text: as §1, §2, §3, §4

[7] = system: HIV-1 constructs containing mutant IN G118R; test: microbe, parasite or virus in culture; format: cell-based; details: Human immunodeficiency virus 1
Procedure: as §1, §2
as §3, with “[…]. […] The” for “The”, “assays. […] After compound incorporation and activation in the cell, 100 μL of virus-stock diluted to achieve a maximum luciferase signal between 0.2 and 1.5 RLUs was added to each well and further incubated at 37° C. for 48 hrs.” for “assays.”
(§5) pNLNgoMIVR^−ΔEnv.LUC has been described previously (Zhao et al. 2008). The integrase codon reading frame was removed from pNLNgoMIVR^−ΔEnv LUC (between KpnI and SalI sites) and placed between the KpnI and SalI sites of pBluescript II KS+. Using that construct as the wild-type template, we prepared the following HIV-1 Integrase-resistant mutants via the QuikChange II XL (Stratagene, La Jolla, Calif.) site-directed mutagenesis protocol: H51Y, T66I, E92Q, G118R, Y143R, Q148H, Q148K, N155H, R263K, G140S+Q148H, G140A+Q148K, E138K+Q148K, and H51Y+R263K. The following sense with cognate antisense (not shown) oligonucleotides (Integrated DNA Technologies, Coralville, Iowa) were used in the mutagenesis: H51Y, 5′-[…]-3; T66I, 5′-[…]-3′; E92Q, 5′-[…]-3′; G118R, 5′-[…]-3′; E138K, 5′-[…]-3; G140A, 5′-[…]-3; G140S, 5′-[…]-3′; Y143R, 5′-[…]-3′; Q148H, 5′-[…]-3′; Q148K, 5′-[…]-3; N155H, 5′-[…]-3′; R263K 5′-[…]-3′. The double mutation G140S+Q148H was constructed by using the previously generated Q148H mutant and the appropriate oligonucleotide for the 2nd mutation, G140S. The double mutation G140A+Q148K was made by using the Q148K mutant and the appropriate oligonucleotide for the 2nd mutation, G140A. The double mutation E138K+Q148K was made by using the Q148K mutant and the appropriate oligonucleotide for the 2nd mutation, E138K. The double mutation H51Y+R263K was constructed by using the previously generated H51Y mutant and the appropriate oligonucleotides for the 2nd mutation, R263K. The DNA sequence of each construct was verified independently by DNA sequence determination. The mutant integrase coding sequences from pBluescript II KS+ were then subcloned into pNLNgoMIVR^−ΔEnv LUC (between the KpnI and SalI sites) to produce the full-length mutant HIV-1 Integrase constructs. These DNA sequences were additionally checked independently by DNA sequence determination.

[8] = system: HIV-1 constructs containing mutant IN R263K; test: Single-round HIV-1 infectivity assay, IN mutant R263K; format: cell-based; details: Human immunodeficiency virus 1
Procedure: as §1, §2
as §3, with “[…]. […] The” for “The”, “assays. […] After compound incorporation and activation in the cell, 100 μL of virus-stock diluted to achieve a maximum luciferase signal between 0.2 and 1.5 RLUs was added to each well and further incubated at 37° C. for 48 hrs.” for “assays.”
as §5

[9] = system: HIV-1 constructs containing mutant IN E92Q; test: Single-round HIV-1 infectivity assay, IN mutant E92Q; format: cell-based; details: Human immunodeficiency virus 1; Table 8; read-out: EC50 (nM, IN mutants) E92Q
Procedure: as §1, §2
as §3, with “[…]. […] The” for “The”, “assays. […] After compound incorporation and activation in the cell, 100 μL of virus-stock diluted to achieve a maximum luciferase signal between 0.2 and 1.5 RLUs was added to each well and further incubated at 37° C. for 48 hrs.” for “assays.”
as §5

[10] = Table 3, WT IN, read-out: EC50 (nM, WT)
[11] = Table 3, read-out: EC50 (nM, IN Mutants) Y143R
[12] = Table 3, read-out: EC50 (nM, IN Mutants) N155H
[13] = Table 3, G140S-Q148H double mutant, read-out: EC50 (nM, IN Mutants) SH
[14] = Table 1, 3′-processing, read-out: IC50 Values 3′-Processing
[15] = Table 1, strand transfer, read-out: IC50 Values Strand transfer
[16] = Table 2, cells infected with lentiviral vector harboring WT IN, read-out: EC50
[17] = Table 8, WT IN, read-out: EC50 (nM, WT)
[18] = Table 8, read-out: EC50 (nM, IN mutants) Y143R
[19] = Table 8, read-out: EC50 (nM, IN mutants) N155H
[20] = Table 8, read-out: EC50 (nM, IN mutants) G140S/Q148H
[21] = Table 7, 3′-processing, read-out: IC50 (μM) 3′-P
[22] = Table 7, strand transfer, read-out: IC50 (μM) ST

| Compound | EC50 [2, 10] | CC50 ([3]; Table 3) | EC50 [4, 11] | EC50 [5, 12] | EC50 [6, 13] | EC50 [2, 17] | CC50 ([3]; Table 8) | EC50 [4, 18] | EC50 [5, 19] | EC50 [6, 20] | IC50 [1, 21] | IC50 [1, 22] | further results |
| --- | --- | --- | --- | --- | --- | --- | --- | --- | --- | --- | --- | --- | --- |
| O=C(NCc1ccc(F)cc1F)c1c(NCCO)c2cccnc2n(O)c1=O [XZ378, N-(2,4-difluorobenzyl)-1-hydroxy-4-((2-hydroxyethyl)amino)-2-oxo-1,2-dihydro-1,8-naphthyridine-3-carboxamide] | 5.2 ± 0.6 nM | 23500 ± 3000 nM | 4.6 ± 1.8 nM | 24.6 ± 3.8 nM | 43.1 ± 15.3 nM | – | – | – | – | – | – | – | IC50 ([1]; Table 4, 3′-processing, read-out: IC50 (3^+-Processing)): 550 ± 70 nM; IC50 ([1]; Table 4, strand transfer, read-out: IC50 (Strand Transfer)): 10 ± 9 nM; Si (selectivity index) ([2]; Table 3, ratio of CC50 to EC50): 4,519; CC50 ([3]; Table 6): 23500 ± 3000 nM; EC50 ([7]; Table 6, read-out: EC50 (nM, IN Mutants) G118R): 27.3 ± 1.4 nM; EC50 ([8]; Table 6, read-out: EC50 (nM, IN Mutants) R263K): 26 nM |
| O=C(NCc1ccc(F)c(Cl)c1)c1c(O)c2cccnc2n(O)c1=O [XZ365, N-(3-chloro-4-fluorobenzyl)-1,4-dihydroxy-2-oxo-1,2-dihydro-1,8-naphthyridine-3-carboxamide] | 34.9 ± 12.3 nM | 102000 ± 17800 nM | 53.6 ± 9.2 nM | 148 ± 8.3 nM | 489 ± 61.8 nM | – | – | – | – | – | – | – | IC50 [1, 14]: 4700 ± 700 nM; IC50 [1, 15]: 27 ± 6 nM; SI [2]: 2,911; Si (selectivity index) [2]: 2,920; EC50 [2, 16]: 35 nM; CC50 ([3]; Table 2): 102000 nM; Integrase Mutants Y143R, fold-change in EC50 relative to WT [4]: 2 x; Integrase Mutants N155H, fold-change in EC50 relative to WT [5]: 4 x; Integrase Mutants SH (G140S-Q148H), fold-change in EC50 relative to WT [6]: 14 x |
| Nc1c(C(=O)NCc2ccc(F)cc2F)c(=O)n(O)c2ncc(CCS(=O)(=O)c3ccccc3)cc12 [XZ446, 4-Amino-N-(2,4-difluorobenzyl)-1-hydroxy-2-oxo-6-(2-(phenylsulfonyl)ethyl)-1,2-dihydro-1,8-naphthyridine-3-carboxamide] | – | – | – | – | – | 2 ± 0.1 nM | > 250000 nM | 0.6 nM | 2.1 nM | 5.2 nM | – | – | IC50 ([1]; Table 10, strand transfer, read-out: IC50 (nM, ST)): 3.7 ± 1.3 nM; EC50 ([7]; Table 8, read-out: EC50 (nM, IN mutants) G118R): 11.4 nM; EC50 ([8]; Table 8, read-out: EC50 (nM, IN mutants) R263K): 5.3 nM; EC50 [9]: 1.2 nM |
| Nc1c(C(=O)NCc2ccc(F)cc2F)c(=O)n(O)c2ncc(Br)cc12 [XZ418, 4-Amino-6-bromo-N-(2,4-difluorobenzyl)-1-hydroxy-2-oxo-1,2-dihydro-1,8-naphthyridine-3-carboxamide] | – | – | – | – | – | 0.99 nM | > 250000 nM | 1.95 nM | 18.8 nM | 112 nM | 7900 ± 800 nM | 3.2 ± 0.5 nM | – |
| COC(=O)CNc1c(C(=O)NCc2ccc(F)cc2F)c(=O)n(O)c2ncc(CCCCCO)cc12 [XZ431, Methyl 2-((3-((2,4-difluorobenzyl)carbamoyl)-1-hydroxy-6-(5-hydroxypentyl)-2-oxo-1,2-dihydro-1,8-naphthyridin-4-yl)amino)acetate] | – | – | – | – | – | 3.3 nM | > 250000 nM | 3.5 nM | 11.1 nM | 41.6 nM | 2100 ± 500 nM | 3.7 ± 0.7 nM | – |
| Nc1c(C(=O)NCc2ccc(F)cc2F)c(=O)n(O)c2ncc(CCCCc3ccccc3)cc12 [XZ429, 4-Amino-N-(2,4-difluorobenzyl)-1-hydroxy-2-oxo-6-(4-phenylbutyl)-1,2-dihydro-1,8-naphthyridine-3-carboxamide] | – | – | – | – | – | 10.6 nM | 12800 nM | 4.7 nM | 38.8 nM | 128 nM | 42000 ± 4000 nM | 1980 ± 422 nM | – |
| O=C(NCc1ccc(F)c(F)c1)c1c(O)c2cccnc2n(O)c1=O [XZ367, N-(3,4-difluorobenzyl)-1,4-dihydroxy-2-oxo-1,2-dihydro-1,8-naphthyridine-3-carboxamide] | 20 ± 6.2 nM | 192000 ± 19000 nM | 44.5 ± 12.2 nM | 189 ± 70.1 nM | 507 ± 125 nM | – | – | – | – | – | – | – | IC50 [1, 14]: 3600 ± 600 nM; IC50 [1, 15]: 40 ± 10 nM; SI [2]: 9,585; Si (selectivity index) [2]: 9,585; EC50 [2, 16]: 20 nM; CC50 ([3]; Table 2): 192000 nM; Integrase Mutants Y143R, fold-change in EC50 relative to WT [4]: 2 x; Integrase Mutants N155H, fold-change in EC50 relative to WT [5]: 9 x; Integrase Mutants SH (G140S-Q148H), fold-change in EC50 relative to WT [6]: 25 x |
| Nc1c(C(=O)NCc2ccc(F)cc2F)c(=O)n(O)c2ncc(CCc3ccccc3)cc12 [XZ430, 4-Amino-N-(2,4-difluorobenzyl)-1-hydroxy-2-oxo-6-phenethyl-1,2-dihydro-1,8-naphthyridine-3-carboxamide] | – | – | – | – | – | 5.6 nM | 17600 nM | 5.5 nM | 21.1 nM | 140 nM | 48000 ± 4000 nM | 14.5 ± 3.4 nM | – |

— patent US9676771B2, “Compounds for inhibiting drug-resistant strains of HIV-1 integrase” (priority 2013, dated 2017)
